According to paper PMC10051454, “Synthesis of Schiff Bases Containing Phenol Rings and Investigation of Their Antioxidant Capacity, Anticholinesterase, Butyrylcholinesterase, and Carbonic Anhydrase Inhibition Properties” (Pharmaceutics, 2023):
“And” between values parts separate entries of the source, which are not always exact repeats. Equal entries are not always repeated. Where two headings read alike, the source gives them in different places.

Columns and labels:
[1] = ABTS radical cation scavenging
Experimental: The ABTS radical cation scavenging assay was used as a way to calculate antioxidant capacity based on this radical scavenging ability. Firstly, an aqueous solution of ABTS (7.0 mM) was oxidized by oxidants such as K2S2O8 (2.5 mM) for the production of its radical cation (ABTS^•+). […] Then, 1 mL of ABTS^•+ solution was added to 3 mL Schiff base (10–15) and hydrazineylidene derivative (16 and 17) solutions at different concentrations (10–30 μg/mL).

AChE = AChE (Homo sapiens, UniProt P22303); test: biochemical
Chain of AChE (P22303 32-614): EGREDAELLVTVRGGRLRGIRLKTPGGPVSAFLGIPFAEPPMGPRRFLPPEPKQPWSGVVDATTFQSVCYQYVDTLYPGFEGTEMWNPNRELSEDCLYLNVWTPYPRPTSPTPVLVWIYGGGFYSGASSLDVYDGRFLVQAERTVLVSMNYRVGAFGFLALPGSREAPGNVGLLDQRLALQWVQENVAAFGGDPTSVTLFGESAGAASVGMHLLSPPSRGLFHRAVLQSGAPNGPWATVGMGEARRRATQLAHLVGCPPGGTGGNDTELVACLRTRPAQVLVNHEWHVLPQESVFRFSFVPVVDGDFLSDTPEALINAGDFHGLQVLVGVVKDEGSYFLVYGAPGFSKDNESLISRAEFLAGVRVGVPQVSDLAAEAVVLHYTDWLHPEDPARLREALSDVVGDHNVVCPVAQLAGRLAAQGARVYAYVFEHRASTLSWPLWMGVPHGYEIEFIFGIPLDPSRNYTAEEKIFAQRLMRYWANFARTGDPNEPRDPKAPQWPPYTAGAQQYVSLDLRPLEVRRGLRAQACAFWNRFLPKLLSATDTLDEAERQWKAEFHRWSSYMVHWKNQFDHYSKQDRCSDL
Experimental: (§1) Acetylthiocholine iodide/butyrylthiocholine iodide (AChI)/BChI) and 5,5′-dithiobis(2-nitro-benzoic acid) (DTNB) were used as the substrate pattern for both cholinergic reactions. […] Then, the samples were incubated at 25 °C for 15 min, and 50 μL of DTNB solution (0.5 mM,) was transferred.

BChE = BChE (Homo sapiens, UniProt P06276); test: biochemical
Chain of BChE (P06276 29-602): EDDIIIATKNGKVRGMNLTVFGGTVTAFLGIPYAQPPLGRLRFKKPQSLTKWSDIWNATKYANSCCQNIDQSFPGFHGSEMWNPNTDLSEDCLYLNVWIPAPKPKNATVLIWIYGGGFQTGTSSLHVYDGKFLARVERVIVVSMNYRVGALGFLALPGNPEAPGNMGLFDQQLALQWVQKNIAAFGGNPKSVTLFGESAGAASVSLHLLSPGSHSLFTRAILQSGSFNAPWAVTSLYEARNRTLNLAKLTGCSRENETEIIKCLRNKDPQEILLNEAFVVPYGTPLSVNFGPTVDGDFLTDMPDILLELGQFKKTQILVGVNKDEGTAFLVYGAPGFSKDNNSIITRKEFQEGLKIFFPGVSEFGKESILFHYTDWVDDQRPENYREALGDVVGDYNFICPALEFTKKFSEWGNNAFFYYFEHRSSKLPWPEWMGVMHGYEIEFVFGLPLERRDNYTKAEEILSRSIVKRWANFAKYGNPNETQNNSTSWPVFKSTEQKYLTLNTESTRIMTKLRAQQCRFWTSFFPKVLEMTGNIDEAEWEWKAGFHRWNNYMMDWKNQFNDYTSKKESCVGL
Experimental: as §1

hCA I [2] = target: T1, hCA I (Homo sapiens, UniProt P00915)
T1 sequence (P00915 whole entry): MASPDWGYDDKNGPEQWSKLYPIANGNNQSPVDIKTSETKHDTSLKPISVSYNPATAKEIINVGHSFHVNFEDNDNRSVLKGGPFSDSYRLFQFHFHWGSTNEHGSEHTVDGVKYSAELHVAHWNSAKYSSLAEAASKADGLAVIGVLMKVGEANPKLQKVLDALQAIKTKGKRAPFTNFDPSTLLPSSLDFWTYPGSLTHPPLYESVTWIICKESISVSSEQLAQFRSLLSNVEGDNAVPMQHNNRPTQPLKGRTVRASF
From the text: (§2) Both isoforms’ activity was spectrophotometrically determined according to the Verpoorte assay [47]. […] All experiments of the CA inhibition assay were repeated three times and the results are given as the arithmetic mean of these repetitions.

hCA II = hCA II (Homo sapiens, UniProt P00918); test: hCA II inhibition, esterase assay (Verpoorte); assay type: biochemical
From the text: as §2

[3] = Fe3+ reducing ability (ferricyanide method, absorbance 700 nm); settings: 30 µg/mL; absorbance at 700 nm
Experimental: The Fe^3+ reducing ability of Schiff bases (10–15) and hydrazineylidene derivatives (16 and 17) were tested according to our prior studies. For this purpose, various concentrations of compounds (10–17) were transferred into test tubes, and 2.5 mL of phosphate buffer (0.2 M, pH 6.6) and 2.5 mL (1%) of potassium ferricyanide [K3Fe(CN)6] solutions were added. Then, the mixture was vortexed and incubated at 50 °C for 20 min. A portion of trichloroacetic acid (2.5 mL, 10%) was added. Then, 2.5 mL of upper layers of the solutions were mixed with 2.5 mL distilled water and 0.5 mL FeCl3 (0.1%). The absorbance values of the reducing effects of compounds (10–17) and standards were spectrophotometrically recorded at 700 nm.

[4] = Fe3+-TPTZ complex reducing ability (absorbance 593 nm); settings: 30 µg/mL; absorbance at 593 nm
Experimental: The Fe^3+-TPTZ complex reducing ability of Schiff bases (10–15) and hydrazineylidene derivatives (16 and 17) was realized according to a previous study. For this, 2.25 mL of TPTZ solution (10 mM in 40 mM HCl) was freshly prepared, then added to 2.5 mL of acetate buffer (0.3 M, pH 3.6) and 2.25 mL of FeCl3 solution (20 mM). Then, different concentrations of Schiff bases (10–15) and hydrazineylidene derivatives (16 and 17) were transferred and incubated at 37 °C for 30 min. Finally, the absorbance values of the reducing power of Schiff bases (10–15) and hydrazineylidene derivatives (16 and 17) and standards were spectrophotometrically measured at 593 nm.

[5] = DPPH radical scavenging (Blois method); settings: half maximal scavenging concentration
Experimental: DPPH· and ABTS^•+ scavenging methods are the most widely used spectrophotometric methods to determine the antioxidant capacity of newly synthesized compounds. The DPPH‧ scavenging effect of Schiff bases (10–15) and hydrazineylidene derivatives (16 and 17) was realized according to the Blois method. Briefly, 1 mL of DPPH^• solution (0.1 mM), which was prepared in ethanol and was a violet/purple color […], was added to the Schiff base (10–15) and hydrazineylidene derivative (16 and 17) samples at different concentrations (10–30 μg/mL). Then, they were incubated at room temperature for 30 min and their absorbance values were recorded at 517 nm.

[6] = Cu2+ reducing ability (neocuproine method, absorbance 450 nm); settings: 30 µg/mL; absorbance at 450 nm
Experimental: The Cu^2+ reducing ability of Schiff bases (10–15) and hydrazineylidene derivatives (16 and 17) were detected according to a prior study. For this purpose, 0.25 mL of CuCl2 solution (10 mM), 0.25 mL of ethanolic neocuproine solution (7.5 × 10^−3 M), and 250 μL of NH4Ac buffer solution (1.0 M) in different concentrations (10–30 μg/mL) were transferred to test tubes containing Schiff base (10–15) and hydrazineylidene derivative (16 and 17) samples. The total volume was made up to 2 mL with distilled water, and their absorbance values were recorded at 450 nm after 30 min of incubation.

hCA I [7] = target: T1, hCA I; test: biochemical
From the text: as §2

SMILES | ABTS^•+ Scavenging IC50 [1] | Selectivity Index (AChE/BChE) (AChE) | IC50 (AChE; read-out: IC50 AChE) [nM] | IC50 (BChE; read-out: IC50 BChE) [nM] | Selectivity Index (hCA I/hCA II) (hCA I [2]) | IC50 (hCA II; read-out: IC50 hCA II) [nM] | Fe^3+ Reducing λ700 [3] [absorbance] | Fe^3+-TPTZ Reducing λ593 [4] [absorbance] | DPPH^• Scavenging IC50 [5] | Cu^2+ Reducing λ450 [6] [absorbance] | IC50 (hCA I [7]) [nM] | Ki (hCA II) [nM] | IC50 (AChE) [nM] | IC50 (BChE) [nM] | IC50 (hCA II) [nM] | Ki (hCA I [7]) [nM]
COc1ccc(/C=N/c2ccccc2O)cc1O [Compound 11, (E)-5-(((2-Hydroxyphenyl)imino)methyl)-2-methoxyphenol] | 4.386 µg/mL and 4.38 µg/mL | 0.645 | 22.4 | 34.6 | 0.730 | 88.2 | 2.591 ± 0.010 | 2.183 ± 0.016 | 12.157 µg/mL and 12.15 µg/mL | 2.332 ± 0.018 | 86.6 | – | – | – | – | –
Cc1c(C)c2c(c(C)c1O)CC[C@@](C)(CCC[C@H](C)CCC[C@H](C)CCCC(C)C)O2 [α-Tocopherol, α-tocopherol, reference compound] | 9.493 µg/mL and 9.49 µg/mL | – | – | – | – | – | 1.446 ± 0.009 | 1.763 ± 0.026 | 10.043 µg/mL and 10.04 µg/mL | 1.923 ± 0.032 | – | – | – | – | – | –
Cc1cc(C(C)(C)C)c(O)c(C(C)(C)C)c1 [BHT, butylated hydroxytoluene, reference compound] | 4.95 µg/mL | – | – | – | – | – | 1.994 ± 0.033 | 2.037 ± 0.027 | 13.326 µg/mL and 13.32 µg/mL | 2.149 ± 0.019 | – | – | – | – | – | –
COc1ccc(/C=N/c2ccc(Br)cc2)cc1O [Compound 13, (E)-5-(((4-Bromophenyl)imino)methyl)-2-methoxyphenol] | 34.65 µg/mL | 0.615 | 17.8 | 28.9 | 0.483 | 77 | 0.198 ± 0.004 | 0.701 ± 0.003 | 87.721 µg/mL and 87.72 µg/mL | 0.875 ± 0.020 | 63 | 67.6 ± 15.7 | – | – | – | –
NN=C(c1ccccc1)c1ccccc1 [Compound 8, benzophenone hydrazone] | – | – | – | – | – | – | – | – | – | 1.005 ± 0.009 | – | – | – | – | – | –
COc1ccc(/C=N/c2ccc(F)cc2)cc1O [Compound 12, (E)-5-(((4-Fluorophenyl)imino)methyl)-2-methoxyphenol] | 27.72 µg/mL | 0.700 | 23.1 | 33 | 0.424 | 99 | 0.294 ± 0.008 | 0.806 ± 0.003 | 57.75 µg/mL | 0.951 ± 0.010 | 61.9 | – | – | – | – | –
COc1ccc(/C=N/N=C(c2ccccc2)c2ccccc2)cc1O [Compound 16, (E)-5-(((Diphenylmethylene)hydrazineylidene)methyl)-2-methoxyphenol] | 11.745 µg/mL and 11.74 µg/mL | 0.627 | 16.1 | 25.7 | 0.326 | 112 | 0.311 ± 0.018 | 1.069 ± 0.057 | 30.13 µg/mL | 1.266 ± 0.029 | 69.3 | – | – | – | – | –
COc1ccc(C=O)cc1O [Compound 1, Isovanillin] | 12.15 µg/mL | 1.083 | – | – | – | – | 0.244 ± 0.005 | 0.728 ± 0.020 | 86.62 µg/mL | 1.005 ± 0.009 | 139 | – | 57.8 | 53.3 | 173 | 112 ± 25.8
COc1ccc(/C=N/Cc2ccccc2)cc1O [Compound 15, (E)-5-((Benzylimino)methyl)-2-methoxyphenol] | 23.896 µg/mL and 23.89 µg/mL | 0.704 | 25.7 | 36.5 | 0.521 | 139 | 0.363 ± 0.021 | 0.646 ± 0.034 | 99.01 µg/mL | 0.803 ± 0.013 | 99 | – | – | – | – | –
COc1ccc(/C=N/Nc2ccccc2)cc1O [Compound 17, (E)-2-Methoxy-5-((2-phenylhydrazineylidene)methyl)phenol] | 4.304 µg/mL and 4.30 µg/mL | 1.206 | 23.9 | 19.8 | 0.247 | 116 | 2.391 ± 0.037 | 2.121 ± 0.014 | 14.744 µg/mL and 14.74 µg/mL | 2.026 ± 0.016 | 96.2 | – | – | – | – | –
COc1ccc(/C=N/c2ccc(N(C)C)cc2)cc1O [Compound 10, (E)-5-(((4-(Dimethylamino)phenyl)imino)methyl)-2-methoxyphenol] | 14.437 µg/mL and 14.43 µg/mL | 1.115 | 26.7 | 23.9 | 0.372 | 131 | 2.827 ± 0.016 | 2.076 ± 0.004 | 16.902 µg/mL and 16.90 µg/mL | 2.176 ± 0.044 | 66 | – | – | – | – | –
COc1ccc(/C=N/c2ccc(N)cc2)cc1O [Compound 14, (E/Z)-5-(((4-Aminophenyl)imino)methyl)-2-methoxyphenol] | 5.33 µg/mL | 0.900 | 34.6 | 38.5 | 0.306 | 69.3 | 2.741 ± 0.026 | 2.074 ± 0.017 | 13.86 µg/mL | 1.970 ± 0.018 | 53.3 | – | – | – | – | 26.1 ± 8.53
COc1ccc(O)c(C(C)(C)C)c1 [BHA, butylated hydroxyanisole, reference compound] | 4.47 µg/mL | – | – | – | – | – | 2.448 ± 0.021 | 2.156 ± 0.005 | 11.55 µg/mL | 2.268 ± 0.011 | – | – | – | – | – | –
Cc1c(C)c2c(c(C)c1O)CCC(C)(C(=O)O)O2 (centres unmarked) [Trolox, trolox, reference compound] | 4.846 µg/mL and 4.84 µg/mL | – | – | – | – | – | 1.570 ± 0.016 | 2.051 ± 0.028 | 12.157 µg/mL and 12.15 µg/mL | 1.174 ± 0.027 | – | – | – | – | – | –
